Where “and” joins values, the source holds several entries; their conditions need not be identical. Identical values can stand only once.
Key:
[1] = test system: KRAS^G12C with secondary switch II pocket mutations; test: Cellular nano-BRET KRAS:CRAF disruption, KRAS^G12C with secondary SWII mutations; type: cell-based, human; conditions: KRAS^G12C with secondary mutation, 4 h
[2] = Oral bioavailability in mice (LC-MS/MS of blood); type: in vivo; conditions: mouse, whole blood, read-out: Oral Bioavailability m%F
KRAS WT = KRAS WT (Homo sapiens, UniProt P01116+P62937); test: RAS binding affinity of compound-bound CYPA (Kd2), SPR; set-up: made in house; host or cells: BL21(DE3) Escherichia coli; conditions: steady state SPR, (95% CI)
Capan-1 cells = test: Cellular ERK phosphorylation (pERK); type: cell-based; conditions: Homo sapiens; Capan-1 (KRAS^G12V PDAC); (95% CI)
KRAS^G12V = KRAS^G12V (Homo sapiens, UniProt P01116+P62937, G12V); test: RAS binding affinity of compound-bound CYPA (Kd2), SPR; set-up: His6-TEV (N); made in house; host or cells: BL21(DE3) Escherichia coli; conditions: steady state, (95% CI)
[3] = test system: NCI-H358 and MIA PaCa-2 cells expressing RTK constructs; test: pERK (MSD) in NCI-H358 and MIA PaCa-2 cells expressing exogenous RTK or RTK fusion constructs; type: cell-based, human

CCn1c(-c2cc(N3CCN(C4CC4)CC3)cnc2[C@H](C)OC)c2c3cc(ccc31)-c1csc(n1)C[C@H](NC(=O)[C@H]1[C@@H]3COC[C@@H]31)C(=O)N1CCC[C@H](N1)C(=O)OCC(C)(C)C2 [RMC-7977]
effect of switch II pocket binding mutations (R68, Y96, H95) on potency [1]: little or no effect
bioavailability [2]: 63%
Kd (KRAS WT): 116 nM
EC50 (Capan-1 cells): 0.421 nM
Kd (KRAS^G12V): 85 nM
pERK inhibition in MiaPaCa2 RTK fusion overexpression cells treated with RMC-7977 ([3]; CCDC6-RET, RMC-7977 0.046 nM): 114.81 and 112.21 and 120.39
pERK inhibition in MiaPaCa2 RTK fusion overexpression cells treated with RMC-7977 ([3]; CCDC6-RET, RMC-7977 0.412 nM): 62.51 and 66.85 and 62.20 and 56.39
pERK inhibition in MiaPaCa2 RTK fusion overexpression cells treated with RMC-7977 ([3]; CCDC6-RET, RMC-7977 1.235 nM): 40.55 and 38.10 and 39.55 and 34.25
pERK inhibition in MiaPaCa2 RTK fusion overexpression cells treated with RMC-7977 ([3]; CCDC6-RET, RMC-7977 3.704 nM): 15.40 and 16.48 and 16.06 and 15.78
pERK inhibition in MiaPaCa2 RTK fusion overexpression cells treated with RMC-7977 ([3]; CCDC6-RET, RMC-7977 11.111 nM): 5.99 and 6.04 and 6.20 and 6.24
pERK inhibition in MiaPaCa2 RTK fusion overexpression cells treated with RMC-7977 ([3]; CCDC6-RET, RMC-7977 33.333 nM): 4.07 and 4.10 and 4.14 and 4.22
pERK inhibition in MiaPaCa2 RTK fusion overexpression cells treated with RMC-7977 ([3]; CCDC6-RET, RMC-7977 100.000 nM): 3.63 and 3.37 and 3.48 and 3.54
pERK in NCI-H358 RTK overexpression cells treated with RMC-7977 ([3]; EGFR WT, RMC-7977 0.0152 nM): 104.75 and 140.08
pERK inhibition in H358 RTK overexpression cells ([3]; EGFR WT, RMC-7977 0.0152 nM): 88.81 and 100.67
pERK in NCI-H358 RTK overexpression cells treated with RMC-7977 ([3]; EGFR WT, RMC-7977 0.0457 nM): 101.07 and 109.46
pERK inhibition in H358 RTK overexpression cells ([3]; EGFR WT, RMC-7977 0.0457 nM): 80.53 and 78.65
pERK in NCI-H358 RTK overexpression cells treated with RMC-7977 ([3]; EGFR WT, RMC-7977 0.41 nM): 70.68 and 81.35
pERK inhibition in H358 RTK overexpression cells ([3]; EGFR WT, RMC-7977 0.41 nM): 58.96 and 57.93
pERK inhibition in H358 RTK overexpression cells ([3]; EGFR WT, RMC-7977 3.70 nM): 13.20 and 12.44
pERK inhibition in H358 RTK overexpression cells ([3]; EGFR WT, RMC-7977 11.11 nM): 5.97 and 5.02
pERK in NCI-H358 RTK overexpression cells treated with RMC-7977 ([3]; EGFR WT, RMC-7977 33.33 nM): 1.98 and 1.90
pERK inhibition in H358 RTK overexpression cells ([3]; EGFR WT, RMC-7977 33.33 nM): 3.17 and 3.29
pERK in NCI-H358 RTK overexpression cells treated with RMC-7977 ([3]; EGFR WT, RMC-7977 100.00 nM): 1.18 and 1.21
pERK inhibition in H358 RTK overexpression cells ([3]; EGFR WT, RMC-7977 100.00 nM): 3.04 and 2.54
pERK in NCI-H358 RTK overexpression cells treated with RMC-7977 ([3]; EGFR WT, RMC-7977 300.00 nM): 1.43 and 1.37
pERK inhibition in H358 RTK overexpression cells ([3]; EGFR WT, RMC-7977 300.00 nM): 2.79 and 3.22
pERK inhibition in MiaPaCa2 RTK fusion overexpression cells treated with RMC-7977 ([3]; EML4-ALK, RMC-7977 0.412 nM): 51.66 and 62.71 and 69.43
pERK inhibition in MiaPaCa2 RTK fusion overexpression cells treated with RMC-7977 ([3]; EML4-ALK, RMC-7977 1.235 nM): 29.82 and 34.96 and 36.22
pERK inhibition in MiaPaCa2 RTK fusion overexpression cells treated with RMC-7977 ([3]; EML4-ALK, RMC-7977 3.704 nM): 13.53 and 15.19 and 15.47
pERK inhibition in MiaPaCa2 RTK fusion overexpression cells treated with RMC-7977 ([3]; EML4-ALK, RMC-7977 11.111 nM): 5.91 and 5.92 and 5.79
pERK inhibition in MiaPaCa2 RTK fusion overexpression cells treated with RMC-7977 ([3]; EML4-ALK, RMC-7977 100.000 nM): 3.46 and 3.15 and 3.05
pERK in NCI-H358 RTK overexpression cells treated with RMC-7977 ([3]; FGFR2, RMC-7977 0.0152 nM): 105.65
pERK inhibition in H358 RTK overexpression cells ([3]; FGFR2, RMC-7977 0.0152 nM): 106.96
pERK in NCI-H358 RTK overexpression cells treated with RMC-7977 ([3]; FGFR2, RMC-7977 0.0457 nM): 88.22
pERK inhibition in H358 RTK overexpression cells ([3]; FGFR2, RMC-7977 0.0457 nM): 111.13
pERK in NCI-H358 RTK overexpression cells treated with RMC-7977 ([3]; FGFR2, RMC-7977 0.41 nM): 48.78
pERK inhibition in H358 RTK overexpression cells ([3]; FGFR2, RMC-7977 0.41 nM): 65.30
pERK inhibition in H358 RTK overexpression cells ([3]; FGFR2, RMC-7977 3.70 nM): 17.67
pERK inhibition in H358 RTK overexpression cells ([3]; FGFR2, RMC-7977 11.11 nM): 6.99
pERK in NCI-H358 RTK overexpression cells treated with RMC-7977 ([3]; FGFR2, RMC-7977 33.33 nM): 3.56
pERK inhibition in H358 RTK overexpression cells ([3]; FGFR2, RMC-7977 33.33 nM): 3.76
pERK in NCI-H358 RTK overexpression cells treated with RMC-7977 ([3]; FGFR2, RMC-7977 100.00 nM): 2.34
pERK inhibition in H358 RTK overexpression cells ([3]; FGFR2, RMC-7977 100.00 nM): 2.57
pERK in NCI-H358 RTK overexpression cells treated with RMC-7977 ([3]; FGFR2, RMC-7977 300.00 nM): 1.90
pERK inhibition in H358 RTK overexpression cells ([3]; FGFR2, RMC-7977 300.00 nM): 2.56
pERK inhibition in MiaPaCa2 RTK fusion overexpression cells treated with RMC-7977 ([3]; FGFR3-TACC3, RMC-7977 0.412 nM): 52.00 and 53.38 and 52.06 and 52.75
pERK inhibition in MiaPaCa2 RTK fusion overexpression cells treated with RMC-7977 ([3]; FGFR3-TACC3, RMC-7977 1.235 nM): 23.92 and 29.24 and 28.51 and 28.89
pERK inhibition in MiaPaCa2 RTK fusion overexpression cells treated with RMC-7977 ([3]; FGFR3-TACC3, RMC-7977 3.704 nM): 15.09 and 13.49 and 14.38 and 14.06
pERK inhibition in MiaPaCa2 RTK fusion overexpression cells treated with RMC-7977 ([3]; FGFR3-TACC3, RMC-7977 11.111 nM): 7.76 and 6.95 and 7.39 and 7.30
pERK inhibition in MiaPaCa2 RTK fusion overexpression cells treated with RMC-7977 ([3]; FGFR3-TACC3, RMC-7977 33.333 nM): 4.29 and 4.25 and 4.22

Reference: PMC11111408, “Concurrent inhibition of oncogenic and wild-type RAS-GTP for cancer therapy” (Nature, 2024)
